# From the NIST ThermoML archive (doi:10.1021/acs.jced.7b00221)
# ± gives the expanded uncertainty stated by the source.
# Assay: xn = mol fraction of the nth substance listed
# Conditions: 100 kPa, Liquid; for viscosity: Cone and plate viscometry; for mass density: Vibrating tube method
compound,measurement,setting,value
CCn1cc[n+](C)c1.O=S(=O)([N-]S(=O)(=O)C(F)(F)F)C(F)(F)F + CCCCCC[n+]1ccn(C)c1.O=S(=O)([N-]S(=O)(=O)C(F)(F)F)C(F)(F)F,viscosity,"278.15 K, x2 = 0",80 ± 10 mPa·s
same,viscosity,"278.15 K, x2 = 0.15",89 ± 11 mPa·s
same,viscosity,"278.15 K, x2 = 0.3",95 ± 12 mPa·s
same,viscosity,"278.15 K, x2 = 0.5",120 ± 15 mPa·s
same,viscosity,"278.15 K, x2 = 0.7",153 ± 19 mPa·s
same,viscosity,"278.15 K, x2 = 0.85",181 ± 22 mPa·s
same,viscosity,"283.15 K, x2 = 0",63 ± 8 mPa·s
same,viscosity,"283.15 K, x2 = 0.15",70 ± 8 mPa·s
same,viscosity,"283.15 K, x2 = 0.3",74 ± 9 mPa·s
same,viscosity,"283.15 K, x2 = 0.5",92 ± 11 mPa·s
same,viscosity,"283.15 K, x2 = 0.7",116 ± 14 mPa·s
same,viscosity,"283.15 K, x2 = 0.85",135 ± 16 mPa·s
same,mass density,"283.15 K, x2 = 0",1534.1 ± 4.1 kg/m3
same,mass density,"283.15 K, x2 = 0.15",1507.1 ± 4.1 kg/m3
same,mass density,"283.15 K, x2 = 0.3",1481.8 ± 4.1 kg/m3
same,mass density,"283.15 K, x2 = 0.5",1451 ± 4.1 kg/m3
same,mass density,"283.15 K, x2 = 0.7",1422.9 ± 4 kg/m3
same,mass density,"283.15 K, x2 = 0.85",1403.6 ± 4 kg/m3
same,viscosity,"288.15 K, x2 = 0",50 ± 6 mPa·s
same,viscosity,"288.15 K, x2 = 0.15",56 ± 7 mPa·s
same,viscosity,"288.15 K, x2 = 0.3",58 ± 7 mPa·s
same,viscosity,"288.15 K, x2 = 0.5",72 ± 9 mPa·s
same,viscosity,"288.15 K, x2 = 0.7",89 ± 11 mPa·s
same,viscosity,"288.15 K, x2 = 0.85",102 ± 12 mPa·s
same,mass density,"288.15 K, x2 = 0",1529 ± 4.1 kg/m3
same,mass density,"288.15 K, x2 = 0.15",1502.1 ± 4.1 kg/m3
same,mass density,"288.15 K, x2 = 0.3",1476.9 ± 4.1 kg/m3
same,mass density,"288.15 K, x2 = 0.5",1446.3 ± 4.1 kg/m3
same,mass density,"288.15 K, x2 = 0.7",1418.2 ± 4 kg/m3
same,mass density,"288.15 K, x2 = 0.85",1399 ± 4 kg/m3
same,viscosity,"293.15 K, x2 = 0.5",58 ± 7 mPa·s
same,viscosity,"293.15 K, x2 = 0.7",70 ± 8 mPa·s
same,viscosity,"293.15 K, x2 = 0.85",79 ± 10 mPa·s
same,mass density,"293.15 K, x2 = 0",1523.9 ± 4.1 kg/m3
same,mass density,"293.15 K, x2 = 0.15",1497.1 ± 4.1 kg/m3
same,mass density,"293.15 K, x2 = 0.3",1472 ± 4.1 kg/m3
same,mass density,"293.15 K, x2 = 0.5",1441.5 ± 4.1 kg/m3
same,mass density,"293.15 K, x2 = 0.7",1413.5 ± 4 kg/m3
same,mass density,"293.15 K, x2 = 0.85",1394.4 ± 4 kg/m3
same,mass density,"295.15 K, x2 = 0",1521.9 ± 4.1 kg/m3
same,mass density,"295.15 K, x2 = 0.15",1495.1 ± 4.1 kg/m3
same,mass density,"295.15 K, x2 = 0.3",1470.1 ± 4.1 kg/m3
same,mass density,"295.15 K, x2 = 0.5",1439.6 ± 4 kg/m3
same,mass density,"295.15 K, x2 = 0.7",1411.6 ± 4 kg/m3
same,mass density,"295.15 K, x2 = 0.85",1392.5 ± 4 kg/m3
same,viscosity,"298.15 K, x2 = 0.7",57 ± 7 mPa·s
same,viscosity,"298.15 K, x2 = 0.85",63 ± 8 mPa·s
same,mass density,"298.15 K, x2 = 0",1518.9 ± 4 kg/m3
same,mass density,"298.15 K, x2 = 0.15",1492.2 ± 4.1 kg/m3
same,mass density,"298.15 K, x2 = 0.3",1467.2 ± 4.1 kg/m3
same,mass density,"298.15 K, x2 = 0.5",1436.7 ± 4 kg/m3
same,mass density,"298.15 K, x2 = 0.7",1408.8 ± 4 kg/m3
same,mass density,"298.15 K, x2 = 0.85",1389.7 ± 4 kg/m3
same,viscosity,"303.15 K, x2 = 0.85",51 ± 6 mPa·s
same,mass density,"303.15 K, x2 = 0",1513.9 ± 4 kg/m3
same,mass density,"303.15 K, x2 = 0.15",1487.2 ± 4.1 kg/m3
same,mass density,"303.15 K, x2 = 0.3",1462.3 ± 4.1 kg/m3
same,mass density,"303.15 K, x2 = 0.5",1431.9 ± 4 kg/m3
same,mass density,"303.15 K, x2 = 0.7",1404.1 ± 4 kg/m3
same,mass density,"303.15 K, x2 = 0.85",1385.1 ± 4 kg/m3
same,mass density,"308.15 K, x2 = 0",1508.9 ± 4 kg/m3
same,mass density,"308.15 K, x2 = 0.15",1482.3 ± 4.1 kg/m3
same,mass density,"308.15 K, x2 = 0.3",1457.5 ± 4.1 kg/m3
same,mass density,"308.15 K, x2 = 0.5",1427.2 ± 4 kg/m3
same,mass density,"308.15 K, x2 = 0.7",1399.5 ± 4 kg/m3
same,mass density,"308.15 K, x2 = 0.85",1380.5 ± 4 kg/m3
same,mass density,"313.15 K, x2 = 0",1503.9 ± 4 kg/m3
same,mass density,"313.15 K, x2 = 0.15",1477.4 ± 4.1 kg/m3
same,mass density,"313.15 K, x2 = 0.3",1452.7 ± 4.1 kg/m3
same,mass density,"313.15 K, x2 = 0.5",1422.5 ± 4 kg/m3
same,mass density,"313.15 K, x2 = 0.7",1394.8 ± 4 kg/m3
same,mass density,"313.15 K, x2 = 0.85",1375.9 ± 4 kg/m3
same,mass density,"318.15 K, x2 = 0",1499 ± 4 kg/m3
same,mass density,"318.15 K, x2 = 0.15",1472.5 ± 4.1 kg/m3
same,mass density,"318.15 K, x2 = 0.3",1447.9 ± 4.1 kg/m3
same,mass density,"318.15 K, x2 = 0.5",1417.8 ± 4 kg/m3
same,mass density,"318.15 K, x2 = 0.7",1390.1 ± 4 kg/m3
same,mass density,"318.15 K, x2 = 0.85",1371.3 ± 4 kg/m3
same,mass density,"323.15 K, x2 = 0",1494.1 ± 4 kg/m3
same,mass density,"323.15 K, x2 = 0.15",1467.7 ± 4.1 kg/m3
same,mass density,"323.15 K, x2 = 0.3",1443.1 ± 4.1 kg/m3
same,mass density,"323.15 K, x2 = 0.5",1413.1 ± 4 kg/m3
same,mass density,"323.15 K, x2 = 0.7",1385.5 ± 4 kg/m3
same,mass density,"323.15 K, x2 = 0.85",1366.8 ± 4 kg/m3
same,mass density,"328.15 K, x2 = 0",1489.1 ± 4 kg/m3
same,mass density,"328.15 K, x2 = 0.15",1462.8 ± 4.1 kg/m3
same,mass density,"328.15 K, x2 = 0.3",1438.3 ± 4.1 kg/m3
same,mass density,"328.15 K, x2 = 0.5",1408.4 ± 4 kg/m3
same,mass density,"328.15 K, x2 = 0.7",1380.9 ± 4 kg/m3
same,mass density,"328.15 K, x2 = 0.85",1362.2 ± 4 kg/m3
same,mass density,"333.15 K, x2 = 0",1484.2 ± 4 kg/m3
same,mass density,"333.15 K, x2 = 0.15",1458 ± 4.1 kg/m3
same,mass density,"333.15 K, x2 = 0.3",1433.5 ± 4.1 kg/m3
same,mass density,"333.15 K, x2 = 0.5",1403.7 ± 4 kg/m3
same,mass density,"333.15 K, x2 = 0.7",1376.2 ± 4 kg/m3
same,mass density,"333.15 K, x2 = 0.85",1357.7 ± 4 kg/m3
same,mass density,"338.15 K, x2 = 0",1479.3 ± 4 kg/m3
same,mass density,"338.15 K, x2 = 0.15",1453.2 ± 4.1 kg/m3
same,mass density,"338.15 K, x2 = 0.3",1428.8 ± 4 kg/m3
same,mass density,"338.15 K, x2 = 0.5",1399 ± 4 kg/m3
same,mass density,"338.15 K, x2 = 0.7",1371.6 ± 4 kg/m3
same,mass density,"338.15 K, x2 = 0.85",1353.2 ± 4 kg/m3
same,mass density,"343.15 K, x2 = 0",1474.4 ± 4 kg/m3
same,mass density,"343.15 K, x2 = 0.15",1448.4 ± 4.1 kg/m3
same,mass density,"343.15 K, x2 = 0.3",1424.1 ± 4 kg/m3
same,mass density,"343.15 K, x2 = 0.5",1394.4 ± 4 kg/m3
same,mass density,"343.15 K, x2 = 0.7",1367 ± 4 kg/m3
same,mass density,"343.15 K, x2 = 0.85",1348.6 ± 4 kg/m3
same,mass density,"348.15 K, x2 = 0",1469.6 ± 4 kg/m3
same,mass density,"348.15 K, x2 = 0.15",1443.6 ± 4.1 kg/m3
same,mass density,"348.15 K, x2 = 0.3",1419.4 ± 4 kg/m3
same,mass density,"348.15 K, x2 = 0.5",1389.8 ± 4 kg/m3
same,mass density,"348.15 K, x2 = 0.7",1362.3 ± 4 kg/m3
same,mass density,"348.15 K, x2 = 0.85",1344.1 ± 4 kg/m3
same,mass density,"353.15 K, x2 = 0",1464.7 ± 4 kg/m3
same,mass density,"353.15 K, x2 = 0.15",1438.8 ± 4.1 kg/m3
same,mass density,"353.15 K, x2 = 0.3",1414.7 ± 4 kg/m3
same,mass density,"353.15 K, x2 = 0.5",1385.2 ± 4 kg/m3
same,mass density,"353.15 K, x2 = 0.7",1357.7 ± 4 kg/m3
same,mass density,"353.15 K, x2 = 0.85",1339.7 ± 4 kg/m3
